For assay [1], the system named is muscle stem cells (MuSCs). The assay is described as follows: MuSC numbers in muscle of NR-fed young and aged mice (FACS, PAX7 staining). The format is in vivo, C57BL/6J mice. The settings on record: for MuSC numbers (FACS): NR 400 mg/kg/day in diet for 6 weeks, FIG. 3A-C. How it is done:
Animals. Young (1 month old) and aged (20-24 months old) C57BL/6JRj mice, purchased from Janvier Labs, and five weeks old male C57BL/10SnJ mice or C57BL/10ScSn-Dmdmdx/J, purchased from The Jackson Laboratory, were fed with pellets containing vehicle or NR (400 mg/kg/day) for 6-8 weeks. The pellets were prepared by mixing powdered chow diet (D12450B, Research Diets Inc.) with water or with NR dissolved in water. Pellets were dried under a laminar flow hood for 48 hours. All mice were housed in micro-isolator cages in a room illuminated from 7:00 am -7:00 pm with ad libitum access to diet and water. FACS based muscle stem cell isolation. Gastrocnemius, soleus, quadriceps, and tibialis anterior muscles from both limbs were excised and transferred into PBS on ice. All muscles were trimmed, minced and digested with 0.1 mg/ml of type II collagenase (Sigma) in PBS for 15 min at 37° C. Samples were then centrifuged at 750 g for 5 min and further digested in 1 mg/ml of collagenase/dispase (Roche) for 30 mins at 37° C. Muscle slurries were sequentially filtered through 100, 70 and 40 μm cell strainers. The isolated cells were then washed in washing buffer (PBS+2.5% FBS) then resuspended in 200 μl of washing buffer and immediately stained with antibodies, including the MuSC markers CD31 (1:800, eBioscience, eFluor450 conjugated); CD34 (1:200, eBioscience, eFluor660 conjugated); CD45 (1:200, eBioscience, eFluor450 conjugated); CD11b (1:400, eBioscience, eFluor450 conjugated); Sca-1 (1:1000, eBioscience, PE-Cy7 conjugated); and α7 integrin (1:300, MBL) for 30 min at 4° C. Secondary staining was performed with a mixture of goat anti-mouse antibody (1:800, Life technologies, Alexa Fluor 488 conjugated) and propidium Iodide (PI, Sigma) for 15 min at 4° C. in the dark. Stained cells were analysed and sorted using the FACSAria II instrument (BD Biosciences). Debris and dead cells were excluded by forward scatter, side scatter and PI gating. Cells were sorted either directly on slides for immunostaining and into TriPure (Roche) reagent for RNA extraction. Histology. […]

Another assay is described as follows: Grip strength test. The format is in vivo, C57BL/6J mice. The settings on record: aged mice, NR diet, FIG. 3G. How it is done:
Grip strength test. Muscle strength was assessed by a grip strength behavior task. The grasp strength of each mouse for all four limbs was measured on a pull-grid assembly connected to a grip strength meter (Columbus Instruments). The mouse was drawn along a straight line parallel to the grid until the grip is broken, providing the peak force in grams. This was repeated 4 times with 5 minute intervals between measurements.

For assay [2], the system named is MuSCs. The assay is described as follows: Myogenesis (colony formation) assay. Type of assay: cell-based, C57BL/6J mice. The settings on record: MuSCs isolated from NR-treated aged mice. How it is done: Myogenesis assay. Five MuSCs were sorted directly into wells of a Matrigel-coated 96-well cell culture plate, containing MuSC growth medium (F10, 20% FBS, 2.5 ng/ml bFGF, 1×pen/strep), using the automated cell deposition unit (ACDU) of the FACSAria II instrument (BD Biosciences). Cells were cultured at 37° C. for 5 days. Cell colony formations were counted using the DM IL LED Inverted Microscope (Leica) after fixation in freshly made or defrosted 4% paraformaldehyde (PFA) for 10 min.

Another assay has as its system primary MuSCs. Description: Respirometry on MuSCs. Type of assay: cell-based, C57BL/6J mice. As to conditions: primary MuSCs isolated from NR-treated aged mice. How it is done: Respirometry on MuSCs. Basal and uncoupled oxygen consumption rates (OCRs) were measured using the Seahorse extracellular flux bioanalyzer (XF96, Seahorse Bioscience Inc.). To uncouple mitochondria, 5 uM of FCCP was injected after a basal respiration measurement. All measurements were performed in triplicates and results were normalized to total cell number seeded (primary MuSCs) assessed using a Bradford kit (Bio-Rad).

Assay [3] has as its system MuSCs. The assay is described as follows: Senescence marker staining of MuSCs from Mdx mice (β-galactosidase, γH2AX, cleaved caspase-3). The format is cell-based. As to conditions: for senescence by β-galactosidase staining: FIG. 6J. How it is done: β-galactosidase assay. MuSCs were sorted directly and cultured primary MuSCs were grown on 8 chamber slides (Thermo Scientific). Senescence-associated β-galactosidase activity was detected using the senescence β-galactosidase staining kit (Cell signaling), according to manufacturer's instructions. Cardiotoxin-induced muscle damage and Histology as described in Example 2. The following antibodies were used: anti-eMHC (Developmental Studies Hybridoma Bank, DSHB, University of Iowa), anti-Pax7 (DSHB, University of Iowa), anti-γH2AX […] (Millipore) and anti-activated-caspase3 (Cell signaling).

[4] abbreviates: MuSCs of NR-treated Mdx mice, cultured three generations, FIG. 6K.

For the molecule `NC(=O)c1ccc[n+]([C@@H]2O[C@H](CO)[C@@H](O)[C@H]2O)c1` [NR, nicotinamide riboside], the “MuSC numbers (FACS)” value in assay [1] (aged mice) was “attenuated the loss of MuSC numbers during aging”; in assay [1] (young mice), “evoking gains in younger mice”. Also, in assay [1] (aged mice, NR diet, FIG. 3D), the “MuSC numbers by PAX7 staining of TA muscle” value is “increase in aged MuSC numbers was confirmed”. Moreover, the limb grip strength entry in “Grip strength test” was “improvements”. Besides, in the assay with MuSCs [2], the “myogenic colony formation (proliferation ability)” value is “enhanced potential to form myogenic colonies”. Besides, the oxidative respiration entry in the assay with primary MuSCs is “trend in oxidative respiration was replicated”. The “senescence by β-galactosidase staining” value was “further reduction in senescence” in the assay with MuSCs [3] (MuSCs from Mdx mice additionally treated with NR in vitro (6 hours)) and “less prone to senescence” in the assay on MuSCs [3] (MuSCs isolated from NR-treated Mdx mice). Besides, the “cleaved caspase-3 immunostaining” value with MuSCs [3] (setting [4]) is “attenuation”. Moreover, the γH2AX immunostaining result in the assay with MuSCs [3] (setting [4]) is “attenuation”.
